From article PMC5672931 (British Journal of Cancer, 2017)
Marks after values point to notes of the source that are not given here.

Key:
[1] = tested on: CDK12; details: ref Johnson et al, 2016; cited from earlier work
[2] = coadministration with aprepitant; ref Zhang et al, 2012; cited from earlier work
[3] = tested on: patients with solid tumours; details: weekly study; ref Nemunaitis et al, 2013; cited from earlier work
[4] = tested on: PHA-stimulated lymphocytes in whole blood; assay: ex vivo lymphocyte stimulation assay; type: cell-based, human
[5] = tested on: Rb phosphorylation and other CDK targets in metastatic melanoma biopsies; assay: CDK targets in paired tumour biopsies; type: in vivo, human; details: three patients with metastatic melanoma
[6] = pharmacokinetics, plasma concentrations by LC-MS/MS; details: for half-life / AUC / Cmax / Tmax: human, plasma, intravenous; for AUC / Cmax: mean
[7] = tested on: advanced malignancies; assay: anti-tumour activity, RECIST v. 1.0; type: in vivo, human; details: parts 1 and 2; extending to 30 cycles
[8] = tested on: Rb phosphorylation and other CDK targets in keratinocytes; assay: CDK targets in skin biopsies; type: in vivo, human
[9] = tested on: patients with advanced malignancies; assay: phase 1 dose escalation: MAD, RP2D and dose-limiting toxicities; type: in vivo, human
[10] = 2-h infusion, 29.6 mg m^−2, n=5
[11] = 2-h infusion, 41.4 mg m^−2, n=6
[12] = skin biopsies post- vs pre-treatment, 2-h infusions

For `CCc1cnn2c(NCc3ccc[n+]([O-])c3)cc(N3CCCC[C@H]3CCO)nc12` [dinaciclib, Dinaciclib], the CDK12 inhibition [1] is given as “CDK12 inhibition by dinaciclib has also been demonstrated”, the “effect of aprepitant on dinaciclib PK parameters” value [2] is given as “does not significantly alter dinaciclib PK parameters” and the “subjects with grade ⩾3 neutropenia” value [3] is given as 10%. The “dose achieving reductions to <5% BrdU incorporation” value ([4]; 2-h infusions) was no less than 7.4 mg m^−2, the “dose reproducibly achieving a sustained PD effect through 8 h” value ([4]; 2-h infusions) was no less than 29.6 mg m^−2 and the “plasma concentration at which reductions to <5% BrdU incorporation were observed” value ([4]; 2-h infusions) was roughly 200 ng/mL. For the same compound, the “dose achieving suppression of lymphocyte proliferation” value ([4]; 8-h infusions) was no less than 7.4 mg m^−2, the “patients with pharmacodynamic reductions in BrdU incorporation” value ([4]; part 1, 2-h infusions) was 24 of 35 and the “patients with reduction of PHA-stimulated BrdU incorporation to <5% at at least one post-dose time point” value ([4]; part 1, of the 24 patients with reductions) was 23. The “expression of Rb phosphorylated at S795” value [5] was “reduced expression”, the “expression of Rb phosphorylated at T356” value [5] was “reduced expression” and the “expression of Rb phosphorylated at other sites and of total Rb” value [5] was “overall preserved expression”. For the same compound, the “increases in p27^Kip1 and p53 post-treatment” value [5] was “occurred in two samples”, the “CL, mean” value ([6]; 2-h infusion, 1.85 mg m^−2, n=1) was 13.6 L h^−1 m^−2 and the “CL, mean” value ([6]; 2-h infusion, 3.7 mg m^−2, n=1) was 11.0 L h^−1 m^−2. For the same compound, the “t1/2, mean” value ([6]; 2-h infusion, 3.7 mg m^−2, n=1) was 2.84 h, the “CL, mean” value ([6]; 2-h infusion, 7.4 mg m^−2, n=1) was 7.61 L h^−1 m^−2 and the “CL, mean” value ([6]; 2-h infusion, 14.8 mg m^−2, n=1) was 13.8 L h^−1 m^−2. The “CL, mean” value [6, 10] was 13.6 ^c L h^−1 m^−2, the “t1/2, mean” value [6, 10] was 2.84 ^c h and the “CL, mean” value [6, 11] was 26.8 L h^−1 m^−2. For the same compound, the “t1/2, mean” value [6, 11] was 2.86 h, the “CL, mean” value ([6]; 2-h infusion, 50 mg m^−2, n=15) was 16.1 L h^−1 m^−2 and the “CL, mean” value ([6]; 2-h infusion, 58 mg m^−2, n=4) was 18.9 L h^−1 m^−2. For the same compound, the “Cmax, mean” value ([6]; 8-h infusion, 7.4 mg m^−2, n=6) was 95.5 ng/mL, the “Cmax, mean” value ([6]; 8-h infusion, 14.8 mg m^−2, n=3) was 95.8 ng/mL and the “Cmax, mean” value ([6]; 8-h infusion, 41.4 mg m^−2, n=2) was 429 ng/mL. The “dose dependence of CL” value ([6]; based on the PK findings) was “dose-independent”, the half-life [6] was 1.4 to 3.3 h and the AUC ([6]; 1.85 mg m^−2, AUC(l), 2-h infusion, 1.85 mg m^−2, n=1) was 136 ng·h/mL. It also gave an AUC ([6]; 1.85 mg m^−2, AUC(tf), 2-h infusion, 1.85 mg m^−2, n=1) of 135 ng·h/mL, a Cmax ([6]; 1.85 mg m^−2, Cmax, 2-h infusion, 1.85 mg m^−2, n=1) of 62.5 ng/mL and an AUC ([6]; 7.4 mg m^−2, AUC(l), 2-h infusion, 7.4 mg m^−2, n=1) of 975 ng·h/mL. The AUC ([6]; 7.4 mg m^−2, AUC(tf), 2-h infusion, 7.4 mg m^−2, n=1) was 974 ng·h/mL, the AUC ([6]; 7.4 mg m^−2, AUC(tf), 8-h infusion, 7.4 mg m^−2, n=6) was 687 ng·h/mL and the AUC ([6]; 7.4 mg m^−2, AUC(tf), 24-h infusion, 7.4 mg m^−2, n=4) was 877 ng·h/mL. The Cmax ([6]; 7.4 mg m^−2, Cmax, 2-h infusion, 7.4 mg m^−2, n=1) was 353 ng/mL, the Cmax ([6]; 7.4 mg m^−2, Cmax, 24-h infusion, 7.4 mg m^−2, n=4) was 41.4 ng/mL and the Tmax ([6]; 7.4 mg m^−2, Tmax, median, 8-h infusion, 7.4 mg m^−2, n=4) was 4 h. The Tmax ([6]; 7.4 mg m^−2, Tmax, median, 24-h infusion, 7.4 mg m^−2, n=1) was 24 h, the AUC ([6]; 10.4 mg m^−2, AUC(tf), 24-h infusion, 10.4 mg m^−2, n=3) was 982 ng·h/mL and the Cmax ([6]; 10.4 mg m^−2, Cmax, 24-h infusion, 10.4 mg m^−2, n=3) was 51.4 ng/mL. The Tmax ([6]; 10.4 mg m^−2, Tmax, median, 24-h infusion, 10.4 mg m^−2, n=2) was 15 h, the AUC ([6]; 14.6 mg m^−2, AUC(tf), 24-h infusion, 14.6 mg m^−2, n=3) was 2590 ng·h/mL and the Cmax ([6]; 14.6 mg m^−2, Cmax, 24-h infusion, 14.6 mg m^−2, n=3) was 161 ng/mL. It also gave a Tmax ([6]; 14.6 mg m^−2, Tmax, median, 24-h infusion, 14.6 mg m^−2, n=2) of 15 h, a half-life ([6]; 14.8 mg m^−2) of 2.78 h and an AUC ([6]; 14.8 mg m^−2, AUC(l), 2-h infusion, 14.8 mg m^−2, n=1) of 1060 ng·h/mL. The AUC ([6]; 14.8 mg m^−2, AUC(tf), 2-h infusion, 14.8 mg m^−2, n=1) was 1060 ng·h/mL, the AUC ([6]; 14.8 mg m^−2, AUC(tf), 8-h infusion, 14.8 mg m^−2, n=3) was 702 ng·h/mL and the Cmax ([6]; 14.8 mg m^−2, Cmax, 2-h infusion, 14.8 mg m^−2, n=1) was 396 ng/mL. It also gave a Tmax ([6]; 14.8 mg m^−2, Tmax, median, 8-h infusion, 14.8 mg m^−2, n=3) of 4 h, an AUC ([6]; 29.6 mg m^−2, AUC(l), 2-h infusion, 29.6 mg m^−2, n=5) of 2440 ng·h/mL and an AUC ([6]; 29.6 mg m^−2, AUC(tf), 2-h infusion, 29.6 mg m^−2, n=5) of 2060 ng·h/mL. It also gave an AUC ([6]; 29.6 mg m^−2, AUC(tf), 8-h infusion, 29.6 mg m^−2, n=3) of 2300 ng·h/mL, a Cmax ([6]; 29.6 mg m^−2, Cmax, 2-h infusion, 29.6 mg m^−2, n=6) of 890 ng/mL and a Cmax ([6]; 29.6 mg m^−2, Cmax, 8-h infusion, 29.6 mg m^−2, n=3) of 333 ng/mL. It also gave a Tmax ([6]; 29.6 mg m^−2, Tmax, median, 8-h infusion, 29.6 mg m^−2, n=3) of 4 h, an AUC ([6]; 41.4 mg m^−2, AUC(l), 2-h infusion, 41.4 mg m^−2, n=6) of 2880 ng·h/mL and an AUC ([6]; 41.4 mg m^−2, AUC(tf), 2-h infusion, 41.4 mg m^−2, n=6) of 2860 ng·h/mL. It also gave an AUC ([6]; 41.4 mg m^−2, AUC(tf), 8-h infusion, 41.4 mg m^−2, n=2) of 3300 ng·h/mL, a Cmax ([6]; 41.4 mg m^−2, Cmax, 2-h infusion, 41.4 mg m^−2, n=6) of 1300 ng/mL and a Tmax ([6]; 41.4 mg m^−2, Tmax, median, 8-h infusion, 41.4 mg m^−2, n=1) of 4 h. For the same compound, the AUC ([6]; 50 mg m^−2, AUC(l), 2-h infusion, 50 mg m^−2, n=15) was 3940 ng·h/mL, the AUC ([6]; 50 mg m^−2, AUC(tf), 2-h infusion, 50 mg m^−2, n=15) was 3910 ng·h/mL and the AUC ([6]; 50 mg m^−2, AUC(tf), 8-h infusion, 50 mg m^−2, n=2) was 3670 ng·h/mL. It also gave a Cmax ([6]; 50 mg m^−2, Cmax, 2-h infusion, 50 mg m^−2, n=15) of 1810 ng/mL, a Cmax ([6]; 50 mg m^−2, Cmax, 8-h infusion, 50 mg m^−2, n=2) of 475 ng/mL and a Tmax ([6]; 50 mg m^−2, Tmax, median, 8-h infusion, 50 mg m^−2, n=2) of 8 h. It also gave an AUC ([6]; 58 mg m^−2, AUC(l), 2-h infusion, 58 mg m^−2, n=4) of 3370 ng·h/mL, an AUC ([6]; 58 mg m^−2, AUC(tf), 2-h infusion, 58 mg m^−2, n=4) of 3360 ng·h/mL and a Cmax ([6]; 58 mg m^−2, Cmax, 2-h infusion, 58 mg m^−2, n=4) of 1460 ng/mL. For the same compound, the Tmax ([6]; Tmax, after the initiation of the 2-h infusion, 35 patients in Part 1, across doses) was 1 to 2 h, the Tmax ([6]; Tmax, after the start of the 8-h infusion, 16 patients) was 4 to 8 h and the Tmax ([6]; Tmax, after the start of the 24-h infusion) was 6 to 24 h. The “patients with stable disease for at least six treatment cycles” value [7] was “eight”, the “cyclin D1 levels” value [8, 12] was “decreased” and the “p27^Kip1 levels” value [8, 12] was “relatively stable”. The p53 levels [8, 12] was “increased”, the Ki-67 staining ([8]; skin biopsies post-treatment) was “no substantial reduction” and the “degree of changes of Rb/CDK markers” value ([8]; skin biopsies, 8-h infusions) was “overall similar to that observed after 2-h infusions”. The “recommended phase 2 dose (RP2D)” value ([9]; 2-h i.v. infusion every 21 days) was 50 mg m^−2, the “maximum administered dose (MAD)” value ([9]; 2-h infusion) was 58 mg m^−2 and the “No of subjects with DLT in cycle 1” value ([9]; 2-hour infusion, 50 mg/m2 (RP2D), 15 subjects treated) was 4 of 15. For the same compound, the “recommended phase 2 dose (RP2D)” value ([9]; 8-h i.v. infusion every 3 weeks) was 7.4 mg m^−2 and the “recommended phase 2 dose (RP2D) / highest safe dose” value ([9]; 24-h i.v. infusion every 3 weeks) was 10.4 mg m^−2.
